Assay results published in PubChem BioAssay AID2060508 (Molecular Pharmacology Branch, DTP, NCI, 2025).
Blank lines part the entries; values can stand above or below the molecule they belong to.

Tested on: 454973-116-R2-J3-PDC spheroids, viability, % test/control
Experiment: Anticancer human tumor 454973-116-R2-J3-PDC patient-derived pancreatic carcinoma cell line growth inhibition [GQUAD]
Conditions: spheroids with HUVEC and MSC; for IC50: curve of first compound; for viability, T/C: stronger effect = lower value
Method in brief: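 Multi-cell-type spheroids of tumor cells with HUVEC and mesenchymal stem cells, treated with drug combinations. Concentrations descend in half-log steps from near clinical Cmax, or from 10 microM where Cmax is unknown; viability read-out.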

[1] = second compound 0.0316 µM, first compound 0.0316 µM
[2] = second compound 0.0316 µM, first compound 0.1 µM
[3] = second compound 0.0316 µM, first compound 0.316 µM
[4] = second compound 0.0316 µM, first compound 1 µM
[5] = second compound 0.0316 µM, first compound 3.16 µM
[6] = second compound 0.0316 µM, first compound 10 µM
[7] = second compound 0.1 µM, first compound 0.0316 µM
[8] = second compound 0.1 µM, first compound 0.1 µM
[9] = second compound 0.1 µM, first compound 0.316 µM
[10] = second compound 0.1 µM, first compound 1 µM
[11] = second compound 0.1 µM, first compound 3.16 µM
[12] = second compound 0.1 µM, first compound 10 µM
[13] = second compound 0.316 µM, first compound 0.0316 µM
[14] = second compound 0.316 µM, first compound 0.1 µM
[15] = second compound 0.316 µM, first compound 0.316 µM
[16] = second compound 0.316 µM, first compound 1 µM
[17] = second compound 0.316 µM, first compound 3.16 µM
[18] = second compound 0.316 µM, first compound 10 µM
[19] = second compound 1 µM, first compound 0.0316 µM
[20] = second compound 1 µM, first compound 0.1 µM
[21] = second compound 1 µM, first compound 0.316 µM
[22] = second compound 1 µM, first compound 1 µM
[23] = second compound 1 µM, first compound 3.16 µM
[24] = second compound 1 µM, first compound 10 µM
[25] = second compound 3.16 µM, first compound 0.0316 µM
[26] = second compound 3.16 µM, first compound 0.1 µM
[27] = second compound 3.16 µM, first compound 0.316 µM
[28] = second compound 3.16 µM, first compound 1 µM
[29] = second compound 3.16 µM, first compound 3.16 µM
[30] = second compound 3.16 µM, first compound 10 µM
[31] = second compound 10 µM, first compound 0.0316 µM
[32] = second compound 10 µM, first compound 0.1 µM
[33] = second compound 10 µM, first compound 0.316 µM
[34] = second compound 10 µM, first compound 1 µM
[35] = second compound 10 µM, first compound 3.16 µM
[36] = second compound 10 µM, first compound 10 µM
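Also: spheroids exposed to compounds for seven days.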
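For viability, T/C in this document: 100% = DMSO vehicle control viability.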

- IC50 (second compound 0.0316 µM): 1730 nM
- IC50 (second compound 0.1 µM): 1550 nM
- IC50 (second compound 0.316 µM): 1630 nM
- IC50 (second compound 1 µM): 1740 nM
- IC50 (second compound 3.16 µM): 1360 nM
- IC50 (second compound 10 µM): < 31.6 nM
SMILES: CC(C)(O)C1CCC(Nc2ccc3ncc(-c4cccc(C(F)(F)F)c4)n3n2)CC1 (centres undefined) + Cc1cnc(CNC(=O)c2c(=O)c3ccc(N4CCCN(C)CC4)nc3n3c2sc2ccccc23)cn1
- viability, T/C [1]: 108%
- viability, T/C [2]: 89.3%
- viability, T/C [3]: 96.5%
- viability, T/C [4]: 75%
- viability, T/C [5]: 21.5%
- viability, T/C [6]: 23.8%
- viability, T/C [7]: 83.3%
- viability, T/C [8]: 83.8%
- viability, T/C [9]: 85.4%
- viability, T/C [10]: 65.4%
- viability, T/C [11]: 22%
- viability, T/C [12]: 27.6%
- viability, T/C [13]: 82.8%
- viability, T/C [14]: 69.2%
- viability, T/C [15]: 76.2%
- viability, T/C [16]: 64.3%
- viability, T/C [17]: 28.9%
- viability, T/C [18]: 32.1%
- viability, T/C [19]: 76.4%
- viability, T/C [20]: 65.6%
- viability, T/C [21]: 65.1%
- viability, T/C [22]: 66.5%
- viability, T/C [23]: 31.9%
- viability, T/C [24]: 32.5%
- viability, T/C [25]: 66.9%
- viability, T/C [26]: 65.2%
- viability, T/C [27]: 63.9%
- viability, T/C [28]: 59.8%
- viability, T/C [29]: 21.3%
- viability, T/C [30]: 25.9%
- viability, T/C [31]: 0.3%
- viability, T/C [32]: 17.6%
- viability, T/C [33]: 49%
- viability, T/C [34]: 0.58%
- viability, T/C [35]: 0.43%
- viability, T/C [36]: 0.23%

- IC50 (second compound 0.0316 µM): > 10000 nM
- IC50 (second compound 0.1 µM): > 10000 nM
- IC50 (second compound 0.316 µM): > 10000 nM
- IC50 (second compound 1 µM): > 10000 nM
- IC50 (second compound 3.16 µM): > 10000 nM
- IC50 (second compound 10 µM): < 31.6 nM
SMILES: COc1ncnc(C2CC2)c1-c1ncc2cnn(Cc3ccc(-c4nc(C(F)(F)F)cn4C(C)C)cc3)c2n1 + Cc1cnc(CNC(=O)c2c(=O)c3ccc(N4CCCN(C)CC4)nc3n3c2sc2ccccc23)cn1
- viability, T/C [1]: 96%
- viability, T/C [2]: 94%
- viability, T/C [3]: 87.8%
- viability, T/C [4]: 104%
- viability, T/C [5]: 88.9%
- viability, T/C [6]: 86.9%
- viability, T/C [7]: 82.1%
- viability, T/C [8]: 69.4%
- viability, T/C [9]: 74.7%
- viability, T/C [10]: 71.4%
- viability, T/C [11]: 69%
- viability, T/C [12]: 63.4%
- viability, T/C [13]: 65.4%
- viability, T/C [14]: 61.9%
- viability, T/C [15]: 59.5%
- viability, T/C [16]: 69.2%
- viability, T/C [17]: 60%
- viability, T/C [18]: 62%
- viability, T/C [19]: 55.3%
- viability, T/C [20]: 69.4%
- viability, T/C [21]: 57.4%
- viability, T/C [22]: 63.2%
- viability, T/C [23]: 61.4%
- viability, T/C [24]: 58.4%
- viability, T/C [25]: 61.7%
- viability, T/C [26]: 58.8%
- viability, T/C [27]: 61.7%
- viability, T/C [28]: 57.8%
- viability, T/C [29]: 67.8%
- viability, T/C [30]: 54%
- viability, T/C [31]: 0.22%
- viability, T/C [32]: 19.6%
- viability, T/C [33]: 50.4%
- viability, T/C [34]: 40.6%
- viability, T/C [35]: 0.38%
- viability, T/C [36]: 0.3%
